What was measured:
TLR7 = target: T1, TLR7 (Homo sapiens, UniProt Q9NYK1); assay: IFN-α1-luciferase reporter assay in genetically modified Namalwa cells, TLR7; type: cell-based; design: expressed in transfected cells; host or cells: Namalwa (ATCC CRL-1432); details: 10 μM IRM, 18 hours
T1 sequence (Q9NYK1 27-1049): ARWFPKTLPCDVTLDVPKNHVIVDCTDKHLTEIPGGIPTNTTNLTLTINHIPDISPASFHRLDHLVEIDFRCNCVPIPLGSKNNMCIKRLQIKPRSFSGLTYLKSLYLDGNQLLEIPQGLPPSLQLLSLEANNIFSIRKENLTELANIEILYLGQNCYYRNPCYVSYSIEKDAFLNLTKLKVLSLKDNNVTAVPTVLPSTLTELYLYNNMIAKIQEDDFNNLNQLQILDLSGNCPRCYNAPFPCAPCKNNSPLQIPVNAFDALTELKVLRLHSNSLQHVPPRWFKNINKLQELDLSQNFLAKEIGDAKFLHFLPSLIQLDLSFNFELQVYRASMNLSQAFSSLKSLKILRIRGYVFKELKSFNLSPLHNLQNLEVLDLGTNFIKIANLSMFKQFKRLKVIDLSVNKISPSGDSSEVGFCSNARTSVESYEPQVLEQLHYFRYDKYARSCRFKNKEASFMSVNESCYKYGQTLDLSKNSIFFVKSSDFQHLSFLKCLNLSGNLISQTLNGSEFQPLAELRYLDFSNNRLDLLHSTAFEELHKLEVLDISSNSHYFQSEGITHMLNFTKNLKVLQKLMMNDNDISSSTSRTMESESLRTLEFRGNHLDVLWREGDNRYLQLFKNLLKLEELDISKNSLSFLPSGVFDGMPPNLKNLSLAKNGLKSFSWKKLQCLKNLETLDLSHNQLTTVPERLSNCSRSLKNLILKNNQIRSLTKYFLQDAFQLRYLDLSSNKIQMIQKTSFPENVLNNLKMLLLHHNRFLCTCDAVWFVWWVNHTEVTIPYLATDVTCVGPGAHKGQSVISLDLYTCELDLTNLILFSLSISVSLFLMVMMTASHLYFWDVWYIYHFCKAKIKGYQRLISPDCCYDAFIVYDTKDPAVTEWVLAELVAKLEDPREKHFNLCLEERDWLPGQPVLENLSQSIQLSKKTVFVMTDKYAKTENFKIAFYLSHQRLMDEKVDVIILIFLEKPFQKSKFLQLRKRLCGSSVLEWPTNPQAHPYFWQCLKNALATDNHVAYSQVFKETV
Protocol: (§1) Results are shown in Table 6 and are expressed as fold induction of IFN-α1 —induced luciferase signal, again with respect to a vehicle control.
(§2) The assay identified TLR6-selective compounds (i.e., compounds that modulate TLR6-mediated activity, but not TLR7-mediated activity), TLR7-selective compounds (compounds that modulate TLR7-mediated activity, but not TLR6-mediated activity), and compounds that modulate cellular activity through both TLR6 and TLR7.
(§3) Unless otherwise indicated, all incubations were performed at 37° C. with 5% CO2 at 98% humidity.
(§4) Culture medium was prepared from complete RPMI 1640 medium (BioSource International, Inc., Camarillo, Calif.). Fetal bovine serum (Atlas Biologicals, Inc., Ft. Collins, Colo.) was added to a final concentration of 7.5% (vol/vol); L-glutamine (BioSource International, Inc.) was added to 5 mM; and sodium pyruvate (BioSource International, Inc.) was added to 1 mM.
Namalwa cells were grown by incubation in culture medium overnight. Cells were harvested by centrifugation in a tabletop centrifuge (1200 RPM for 5 minutes), and then resuspended in phosphate buffered sucrose to a concentration of 1.3×10^7 cells/mL. […]
(§5) The electroporated cells were suspended in 10 mLs of culture medium and incubated overnight. Dead cells and debris were removed after 24 hours using a MACS Dead Cell Removal kit (Miltenyi Biotec, Auburn, Calif.). Cells were resuspended in 10 mL of culture medium and incubated for an additional 24 hours.
(§6) Transfected cells were selected by adding G418 (Promega Corp., Madison, Wis.) to a final concentration of 1 mg/mL and incubating the cells for seven days.
(§7) The selected transfected cells were counted and resuspended to a concentration of 1×10^6 cell per mL in culture medium. 100 μl aliquots of cells were placed in the wells of a white-walled, white-bottomed 96-well plate (Corning, Inc., Corning, N.Y.). 1.0 μL of an IRM compound from Table 1 (prepared at 1 mM in 100% DMSO) was added to some cell aliquots so that the final concentration of IRM compound was 10 μM. As a positive control, some cell aliquots were incubated with Sendai virus instead of IRM compound. As a negative control, some cell aliquots were incubated with DMSO without IRM compound. In all cases, the cells were incubated for 18 hours.
(§8) The plates were equilibrated to room temperature before one volume of reconstituted LucLight Plus (Packard Instruments, Meriden, Conn.) was added to each aliquot of cells. Each well of the plate was read on an LJL Analyst (LJL Biosystems, Inc., Sunnyvale, Calif.) set with a 5 minute dark adapt. Results are shown in Table 6 and are expressed as fold increase of the IFN-αl—induced luciferase signal compared to a DMSO control.

TLR6 = target: T2, TLR6 (Homo sapiens, UniProt Q9Y2C9); assay: IFN-α1-luciferase reporter assay in genetically modified Namalwa cells, TLR6; type: cell-based; details: 10 μM IRM, 18 hours
T2 construct: expressed in transfected cells; host or cells: Namalwa (ATCC CRL-1432), pCI-TLR6 vector, G418 selected
T2 sequence (Q9Y2C9 32-796): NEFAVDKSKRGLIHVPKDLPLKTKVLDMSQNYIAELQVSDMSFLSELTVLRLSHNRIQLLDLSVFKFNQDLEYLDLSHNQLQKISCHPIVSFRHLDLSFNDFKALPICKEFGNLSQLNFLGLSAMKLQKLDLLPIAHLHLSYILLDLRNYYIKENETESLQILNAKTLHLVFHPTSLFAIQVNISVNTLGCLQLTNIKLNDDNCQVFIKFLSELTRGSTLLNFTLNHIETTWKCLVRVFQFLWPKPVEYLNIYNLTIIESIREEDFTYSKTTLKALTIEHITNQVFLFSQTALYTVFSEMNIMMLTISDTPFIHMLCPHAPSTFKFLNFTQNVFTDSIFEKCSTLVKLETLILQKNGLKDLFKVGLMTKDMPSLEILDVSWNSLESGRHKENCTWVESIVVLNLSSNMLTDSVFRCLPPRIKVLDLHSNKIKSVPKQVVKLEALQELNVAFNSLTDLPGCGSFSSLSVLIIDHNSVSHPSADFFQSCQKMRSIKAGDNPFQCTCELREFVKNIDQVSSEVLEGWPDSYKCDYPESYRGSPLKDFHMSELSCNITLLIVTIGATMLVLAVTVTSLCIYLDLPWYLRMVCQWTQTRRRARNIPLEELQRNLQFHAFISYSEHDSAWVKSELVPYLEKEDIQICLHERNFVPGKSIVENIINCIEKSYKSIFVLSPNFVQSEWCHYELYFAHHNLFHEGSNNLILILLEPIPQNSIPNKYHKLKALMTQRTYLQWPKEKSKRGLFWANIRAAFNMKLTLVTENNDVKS
Protocol: as §1, §2, §3, §4
Namalwa cells were grown by incubation in culture medium overnight. Cells were harvested by centrifugation in a tabletop centrifuge (1200 RPM for 5 minutes), and then resuspended in phosphate buffered sucrose to a concentration of 1.3×10^7 cells/mL.
For each transfection, a 750 μL aliquot of the cell suspension was placed in an electroporation cuvette with 4 mm gaps. 10 μg of the pIFN-α1-luc vector and 10 μg of the pCI-TLR6 vector were added to the electroporation cuvette. The cell and vector mixtures were incubated at room temperature for 5 minutes. The cells were electroporated using a BioRad Gene Pulser (BioRad Laboratories, Hercules, Calif.) set to at 500 μF capacitance and […], then incubated at room temperature for 5 minutes.
as §5, §6, §7, §8

TLR7: fold increase of the IFN-α1-induced luciferase signal compared to a DMSO control (TLR7)	TLR6: fold increase of the IFN-α1-induced luciferase signal compared to a DMSO control (TLR6)	SMILES
1.74 fold increase	3.67 fold increase	COCCc1nc2c(N)nc3ccccc3c2n1CCOCCNC(=O)c1ccc(C(=O)NCCOCCn2c(CCOC)nc3c(N)nc4ccccc4c32)cc1 [IRM51, N,N′-bis(2-{2-[4-amino-2-(2-methoxyethyl)-1H-imidazo[4,5-c]quinolin-1-yl]ethoxy}ethyl)terephthalamide]
1.63 fold increase	3.40 fold increase	Nc1nc2ccccc2c2c1ncn2CCOCc1cc2ccccc2o1 [IRM31, 1-[2-(benzo[b]furan-2-ylmethoxy)ethyl]-1H-imidazo[4,5-c]quinolin-4-amine]
1.91 fold increase	8.80 fold increase	CCc1nc2c(N)nc3ccccc3c2n1CCCCSC(C)C [IRM50]
1.32 fold increase	4.57 fold increase	Nc1nc2ccccc2c2c1ncn2COCCOc1ccc([N+](=O)[O-])cc1 [IRM29, 1-{[2-(4-nitrophenoxy)ethoxy]methyl}-1H-imidazo[4,5-c]quinolin-4-amine]
1.60 fold increase	6.10 fold increase	CCCCc1nc2c(N)nc3ccc(OCC(=O)N4CCOCC4)cc3c2n1C [IRM44, 2-[(4-amino-2-butyl-1-methyl-1H-imidazo[4,5-c]quinolin-8-yl)oxy]-1-morpholin-1-ylethanone]

The next lines start with the molecule.

SMILES	TLR7: fold increase of the IFN-α1-induced luciferase signal compared to a DMSO control (TLR7)	TLR6: fold increase of the IFN-α1-induced luciferase signal compared to a DMSO control (TLR6)
Nc1nc2ccccc2c2c1ncn2CCOCCCc1cccnc1 [IRM35, 1-{2-[3-(3-pyridyl)propoxy]ethyl}-1H-imidazo[4,5-c]quinolin-4-amine]	2.33 fold increase	6.72 fold increase
Cc1nc2c(N)nc3ccccc3c2n1CCOCC#Cc1ccccc1 [IRM47, 2-methyl-1-{2-[(3-phenylprop-2-ynyl)oxy]ethyl}-1H-imidazo[4,5-c]quinolin-4-amine]	1.91 fold increase	9.42 fold increase
COCCc1nc2c(N)nc3ccccc3c2n1CCOCCNC(=O)N1CCOCC1 [IRM49, N-(2-{2-[4-amino-2-(2-methoxyethyl)-1H-imidazo[4,5-c]quinolin-1-yl]ethoxy}ethyl)morpholine-4-carboxamide]	1.95 fold increase	10.92 fold increase
CN(C)c1cccc(CCCOCCn2cnc3c(N)nc4ccccc4c32)c1 [IRM25, 1-(2-{3-[3-(dimethylamino)phenyl]propoxy}ethyl)-1H-imidazo[4,5-c]quinolin-4-amine]	2.89 fold increase	0.04 fold increase
CCCCc1nc2c(N)nc3ccccc3c2n1CCCNC(=O)Nc1ccccc1 [IRM32, N-[3-(4-amino-2-butyl-1H-imidazo[4,5-c]quinolin-1-yl)propyl]-N′-phenylurea]	1.77 fold increase	7.47 fold increase
Cc1nc(N)c2nc(C)n(CCCCCS(=O)(=O)c3ccccc3)c2c1C [IRM33, 1-(5-benzenesulfonyl-pentyl)-2,6,7-trimethyl-1H-imidazo[4,5-c]pyridin-4-ylamine]	1.99 fold increase	13.12 fold increase
Cc1nc2c(N)nc3ccccc3c2n1CC(C)(C)O [IRM34, 4-amino-α,α,2-trimethyl-1H-imidazo[4,5-c]quinoline-1-ethanol]	3.37 fold increase	10.80 fold increase
Nc1nc2ccccc2c2c1ncn2CCCC(=O)c1ccccc1 [IRM46, 4-(4-amino-1H-imidazo[4,5-c]quinolin-1-yl)-1-phenylbutan-1-one]	1.83 fold increase	3.75 fold increase
CCCCc1nc2c(N)nc3ccccc3c2s1 [IRM27, 2-butylthiazolo[4,5-c]quinolin-4-amine]	1.32 fold increase	6.28 fold increase
CCOCc1nc2c(N)nc(C)c(C)c2n1CCNS(C)(=O)=O [IRM26, N-{2-[4-amino-2-(ethoxymethyl)-6,7-dimethyl-1H-imidazo[4,5-c]pyridin-1-yl]ethyl}methanesulfonamide]	2.48 fold increase	1.50 fold increase

Reference: patent US20040171086A1, “Selective modulation of TLR-mediated biological activity” (3M Innovative Properties Company, priority 2003, published 2004)
